The results in this text go back to US9440950B2, “Arginine methyltransferase inhibitors and uses thereof” (Epizyme, Inc., priority 2013, dated 2016).

Each structure is given as a SMILES string.

In this experiment the target is T1, human PRMT3 (Homo sapiens, UniProt O60678).
T1 construct: GST-tagged PRMT3; made in house; host or cells: E. coli BL21(DE3) Gold (pGEX-KG)
T1 sequence (O60678 with tags, fused parts or gaps): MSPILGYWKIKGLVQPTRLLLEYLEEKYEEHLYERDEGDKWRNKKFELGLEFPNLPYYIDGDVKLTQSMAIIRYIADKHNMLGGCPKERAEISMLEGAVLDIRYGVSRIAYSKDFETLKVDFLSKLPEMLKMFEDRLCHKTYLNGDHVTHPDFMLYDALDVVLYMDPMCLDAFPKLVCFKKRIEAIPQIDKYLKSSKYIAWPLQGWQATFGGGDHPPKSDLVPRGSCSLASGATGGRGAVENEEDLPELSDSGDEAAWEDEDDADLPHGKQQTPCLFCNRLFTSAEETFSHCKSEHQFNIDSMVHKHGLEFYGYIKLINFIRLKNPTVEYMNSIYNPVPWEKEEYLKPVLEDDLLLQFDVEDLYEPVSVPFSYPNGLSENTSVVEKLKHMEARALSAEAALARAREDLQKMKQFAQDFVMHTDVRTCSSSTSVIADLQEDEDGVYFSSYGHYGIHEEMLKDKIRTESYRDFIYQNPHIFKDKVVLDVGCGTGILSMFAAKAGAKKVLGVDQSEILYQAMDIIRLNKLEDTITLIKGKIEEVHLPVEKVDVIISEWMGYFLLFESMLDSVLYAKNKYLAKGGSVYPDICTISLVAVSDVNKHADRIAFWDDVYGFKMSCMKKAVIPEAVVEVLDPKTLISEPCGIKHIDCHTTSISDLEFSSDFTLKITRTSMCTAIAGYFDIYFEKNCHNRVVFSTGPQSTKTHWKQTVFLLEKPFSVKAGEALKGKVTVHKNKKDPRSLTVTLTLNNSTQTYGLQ
The experiment in a line: PRMT3 Biochemical Assay. Conditions: peptide substrate, 3H-SAM Flashplate assay. The source says: S-adenosylmethionine (SAM), S-adenosylhomocysteine (SAH), bicine, Tween20, dimethylsulfoxide (DMSO), bovine skin gelatin (BSG), isopropyl-P3-D-thiogalactopyranoside (IPTG), and Tris(2-carboxyethyl)phosphine hydrochloride solution (TCEP) were purchased from Sigma-Aldrich at the highest level of purity possible. ^3H-SAM was purchase from American Radiolabeled Chemicals with a specific activity of 80 Ci/mmol. 384-well streptavidin Flashplates were purchased from PerkinElmer.
Peptide containing the classic RMT substrate motif was synthesized with an N-terminal linker-affinity tag motif and a C-terminal amide cap by 21st Century Biochemicals. The peptide was purified by high-performance liquid chromatography (HPLC) to greater than 95% purity and confirmed by liquid chromatography mass spectrometry (LC-MS). The sequence was Biot-Ahx-[…]-amide (SEQ ID NO.:11).
Full-length human PRMT3 (NM_005788.3) isoform 1 transcript clone was amplified from an HEK 293 cDNA library and subcloned into pGEX-KG (GE Life Sciences). The resulting construct encodes an N-terminal GST tag and a thrombin cleavage sequence ([…] […] […] […]) (SEQ ID NO.: 12) fused directly to Cys 2 of PRMT3.
E. coli (BL21(DE3) Gold, Stratagene) made competent by the CaCl2 method were transformed with the PRMT3 construct and ampicillin selection. Protein over-expression was accomplished by growing the PRMT3 expressing E. coli clone and inducing expression with 0.3 mM IPTG at 16° C. The culture was grown for 12 hours, harvested by centrifugation, and stored at −80° C. for purification.
GST-tagged PRMT3 eluted with 25-400 mM phosphate in buffer C. Protein was concentrated and buffer was exchanged to 20 mM Tris, 150 mM NaCl, 5% glycerol, 5 mM β-mercaptoethanol, pH7.8 by ultrafiltration. The purity of recovered protein was 70%.
General Procedure for PRMT3 Enzyme Assays on Peptide Substrates.
The assays were all performed in a buffer consisting of 20 mM Bicine (pH=7.6), 1 mM TCEP, 0.005% BSG, and 0.002% Tween 20, prepared on the day of use. Compounds in 100% DMSO (1 ul) were spotted into a polypropylene 384-well V-bottom plates (Greiner) using a Platemate Plus outfitted with a 384-channel head (Thermo Scientific). DMSO (1 ul) was added to Columns 11, 12, 23, 24, rows A-H for the maximum signal control and 1 ul of SAH, a known product and inhibitor of PRMT3, was added to columns 11, 12, 23, 24, rows I-P for the minimum signal control. A cocktail (40 ul) containing the PRMT3 enzyme was added by Multidrop Combi (Thermo-Fisher). The compounds were allowed to incubate with PRMT3 for 30 min at room temperature, then a cocktail (10 ul) containing SAM and peptide was added to initiate the reaction (final volume=51 ul). The final concentrations of the components were as follows: PRMT3 was 0.5 nM, ^3H-SAM was 100 nM, non-radiolabeled SAM was 1.8 uM, peptide was 330 nM, SAH in the minimum signal control wells was 1 mM, and the DMSO concentration was 2%. The assays were stopped by the addition of potassium chloride (10 ul) to a final concentration of 100 mM. 50 ul of the reaction in the 384-well polypropylene plate was then transferred to a 384-well Flashplate and the biotinylated peptides were allowed to bind to the streptavidin surface for at least 1 hour before being washed once with 0.1% Tween20 in a Biotek ELx405 plate washer. The plates were then read in a PerkinElmer TopCount plate reader to measure the quantity of ^3H-labeled peptide bound to the Flashplate surface, measured as disintegrations per minute (dpm) or alternatively, referred to as counts per minute (cpm).
Where dpm=disintegrations per minute, cmpd=signal in assay well, and min and max are the respective minimum and maximum signal controls.
Where top and bottom are the normally allowed to float, but may be fixed at 100 or 0 respectively in a 3-parameter fit. The Hill Coefficient normally allowed to float but may also be fixed at 1 in a 3-parameter fit. […]
A word on the IC50: it is the concentration that inhibits the measured activity by half. Higher therefore signals a need for much substance. For `Cc1cncc(-c2n[nH]cc2CN(C)CCN)c1` [Compound 6], the half-maximal inhibitory concentration (IC50) is not below 10 µM.

Turning to `CNCCN(C)Cc1c[nH]nc1-c1ccc(N)nc1` [Compound 3], the concentration for half-maximal inhibition (IC50) was not below 10 µM.

Regarding `Cc1cc(-c2n[nH]cc2CN(C)CCN)cnc1Cl` [Compound 10], the IC50 lay in the range of 1.01 to 3 µM.

`CNCCN(C)Cc1c[nH]nc1-c1ccc(O)nc1` [Compound 2] gave an IC50 not below 10 µM.

Consider `CNCCN(C)Cc1c[nH]nc1-c1cccnc1` [Compound 1], for which the IC50 was not below 10 µM.

`CN(CCN)Cc1c[nH]nc1-c1ccncc1` [Compound 9]: the IC50 lay in the range of 1.01 to 3 µM.

The molecule `COc1ccncc1-c1n[nH]cc1CN(C)CCN` [Compound 16] showed an IC50 not below 10 µM.

As to `CN(CCN)Cc1c[nH]nc1-c1cncc(C#N)c1` [Compound 18], the IC50 is not below 10 µM.

The molecule `CN(CCN)Cc1c[nH]nc1-c1ccc(C(F)(F)F)nc1` [Compound 13, N^1-methyl-N^1-((3-(6-(trifluoromethyl)pyridin-3-yl)-1H-pyrazol-4-yl)methyl)ethane-1,2-diamine] gave an IC50 of 3.01 to 10 µM.

`COc1ncccc1-c1n[nH]cc1CN(C)CCN` [Compound 15] showed a half-inhibitory concentration (IC50) not below 10 µM.

`CN(CCN)Cc1c[nH]nc1-c1cncc(F)c1` [Compound 7] displayed an IC50 of 3.01 to 10 µM.

In turn, `COc1ncc(Cl)cc1-c1n[nH]cc1CN(C)CCN` [Compound 14] displayed an IC50 not below 10 µM.

With `CN(CCN)Cc1c[nH]nc1-c1cncc(S(C)(=O)=O)c1` [Compound 4], the IC50 was not below 10 µM.

Regarding `CN(CCN)Cc1c[nH]nc1-c1cccnc1` [Compound 8], the IC50 is not below 10 µM.

For the molecule `COc1cc(-c2n[nH]cc2CN(C)CCN)ccn1` [Compound 11], the IC50 is not below 10 µM.

`CN(CCN)Cc1c[nH]nc1-c1cncc(Cl)c1` [Compound 19] yielded a half-maximal inhibitory concentration (IC50) of 1.01 to 3 µM.

`Cc1ccncc1-c1n[nH]cc1CN(C)CCN` [Compound 17] came in with an IC50 not below 10 µM.

For `COc1cc(-c2n[nH]cc2CN(C)CCN)c(Cl)cn1` [Compound 12], the half-maximal inhibitory concentration (IC50) is not below 10 µM.

In turn, `COc1ccc(-c2n[nH]cc2CN(C)CCN)cn1` [Compound 5] displayed an IC50 not below 10 µM.
